Data from BindingDB's records for patent US8829190 (Leo Pharma, 2014).

Biological target: cAMP-specific 3',5'-cyclic phosphodiesterase 4D (Homo sapiens, UniProt Q08499)
Assay: Binding Assay
Description: Human recombinant PDE4 (Gene bank accession no NM006203) was incubated for 1 hour with the test compound at concentrations up to 10 μM, with cAMP (1x10-5M), and with a low amount (0.021 MBq) of radioactively labelled cAMP. At the end of the incubation, the cleavage of the substrate was evaluated by the binding of the AMP product to SPA beads, which generate chemo luminescence when bound to the radioactive tracer. The AMP product inhibited the binding of the radioactive tracer to the beads, and the luminescent signal was competed.

Sequence of cAMP-specific 3',5'-cyclic phosphodiesterase 4D (Q08499 whole entry): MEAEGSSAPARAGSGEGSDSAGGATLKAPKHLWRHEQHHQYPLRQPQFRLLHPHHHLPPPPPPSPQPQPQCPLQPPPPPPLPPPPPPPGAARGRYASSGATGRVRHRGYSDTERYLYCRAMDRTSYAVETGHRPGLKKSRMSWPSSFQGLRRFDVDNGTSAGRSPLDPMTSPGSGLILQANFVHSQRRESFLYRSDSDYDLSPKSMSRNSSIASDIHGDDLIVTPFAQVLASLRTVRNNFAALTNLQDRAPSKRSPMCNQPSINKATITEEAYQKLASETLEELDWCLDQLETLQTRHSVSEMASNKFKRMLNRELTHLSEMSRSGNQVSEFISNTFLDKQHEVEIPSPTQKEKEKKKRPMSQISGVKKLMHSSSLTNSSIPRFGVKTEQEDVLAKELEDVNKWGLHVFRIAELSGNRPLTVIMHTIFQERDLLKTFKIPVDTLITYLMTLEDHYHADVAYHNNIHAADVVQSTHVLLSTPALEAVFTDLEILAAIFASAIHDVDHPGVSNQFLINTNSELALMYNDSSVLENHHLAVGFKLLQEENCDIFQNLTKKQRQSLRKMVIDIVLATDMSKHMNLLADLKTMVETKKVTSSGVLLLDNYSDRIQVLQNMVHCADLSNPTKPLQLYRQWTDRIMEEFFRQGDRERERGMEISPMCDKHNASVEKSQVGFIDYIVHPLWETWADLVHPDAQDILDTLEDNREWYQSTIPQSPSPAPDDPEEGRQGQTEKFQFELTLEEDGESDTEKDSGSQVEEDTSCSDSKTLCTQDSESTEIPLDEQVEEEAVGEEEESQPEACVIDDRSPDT

IC50: 46 nM
Structure (SMILES): COc1ccc(C(=O)Cc2ccccc2Cl)n2nc(C3CC3)nc12 [US8829190, 127]
